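Values below derive from 48-hour exposures of cells grown in 96-well plates, with endpoints linearly interpolated between the two concentrations bracketing the appropriate inhibition level. TGI denotes the concentration required for complete inhibition of growth.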
Legend:
Experiment in all cases: growth of human tumour cells (NCI), 48 h
[1] = system: DMS 273 small cell lung
[2] = system: OVCAR-4 ovarian
[3] = system: M19-MEL melanoma
[4] = system: 786-0 renal
[5] = system: SK-MEL-2 melanoma
[6] = system: SR leukemia
[7] = system: UACC-62 melanoma
[8] = system: ACHN renal
[9] = system: SW-620 colon
[10] = system: DMS 114 small cell lung
[11] = system: OVCAR-3 ovarian
[12] = system: SNB-19 CNS
[13] = system: EKVX NSCLC
[14] = system: SF-268 CNS
[15] = system: KM12 colon
[16] = system: K-562 leukemia
[17] = system: HOP-92 NSCLC
[18] = system: OVCAR-8 ovarian
[19] = system: U251 CNS
[20] = system: RXF 393 renal
[21] = system: NCI-H460 lung
[22] = system: HT29 colon
[23] = system: IGROV1 ovarian
[24] = system: OVCAR-5 ovarian
[25] = system: HCT-15 colon
[26] = system: SK-OV-3 ovarian
[27] = system: A549 NSCLC
[28] = system: UACC-257 melanoma
[29] = system: SF-295 CNS
[30] = system: HOP-62 NSCLC
[31] = system: LOX IMVI melanoma
[32] = system: UO-31 renal
[33] = system: DLD-1 colon
[34] = system: HCC-2998 colon
[35] = system: SNB-75 CNS
[36] = system: HOP-18 NSCLC
[37] = system: CAKI-1 renal
[38] = system: HL-60(TB) leukemia
[39] = system: MALME-3M melanoma
[40] = system: SK-MEL-28 melanoma
[41] = system: SK-MEL-5 melanoma
[42] = system: SNB-78 CNS
[43] = system: HCT-116 colon
[44] = system: RPMI-8226 leukemia
[45] = system: NCI-H226 lung
[46] = system: SF-539 CNS
[47] = system: COLO 205 colon
[48] = system: CCRF-CEM leukemia
[49] = system: NCI-H522 lung
[50] = system: SN12C renal
[51] = system: KM20L2 colon
[52] = system: MOLT-4 leukemia
[53] = system: A498 renal
[54] = system: TK-10 renal
[55] = system: NCI-H23 lung
[56] = system: M14 melanoma
[57] = system: LXFL 529 NSCLC
[58] = system: XF 498 CNS

O=C1c2ccccc2-c2ccccc2C(=O)C1(Br)Br
TGI [1]: 29.8 µM | TGI [2]: 26.7 µM | TGI [3]: 22.3 µM | TGI [4]: 25.7 µM | TGI [5]: 23.6 µM | TGI [6]: 4.95 µM | TGI [7]: 19.6 µM | TGI [8]: 24.6 µM | TGI [9]: 13 µM | TGI [10]: 28.5 µM | TGI [11]: 27.4 µM | TGI [12]: 31.6 µM | TGI [13]: 27.7 µM | TGI [14]: 28.5 µM | TGI [15]: 31.5 µM | TGI [16]: 28.3 µM | TGI [17]: 9.59 µM | TGI [18]: 23.9 µM | TGI [19]: 29.4 µM | TGI [20]: 10.9 µM | TGI [21]: 35 µM | TGI [22]: 32.7 µM | TGI [23]: 27.2 µM | TGI [24]: 32 µM | TGI [25]: 25 µM | TGI [26]: 33.7 µM | TGI [27]: 34.6 µM | TGI [28]: 22.8 µM | TGI [29]: 29.6 µM | TGI [30]: 32.2 µM | TGI [31]: 22.2 µM | TGI [32]: 27.5 µM | TGI [33]: 20.3 µM | TGI [34]: 32.2 µM | TGI [35]: 17.6 µM | TGI [36]: 26.2 µM | TGI [37]: 16.7 µM | TGI [38]: 6.47 µM | TGI [39]: 13.6 µM | TGI [40]: 20.8 µM | TGI [41]: 31.1 µM | TGI [42]: 23.4 µM | TGI [43]: 21.9 µM | TGI [44]: 4.65 µM | TGI [45]: 31.7 µM | TGI [46]: 23.7 µM | TGI [47]: 20.7 µM | TGI [48]: 9.26 µM | TGI [49]: 4.92 µM | TGI [50]: 24.2 µM | TGI [51]: 31.8 µM | TGI [52]: 7.53 µM | TGI [53]: 30.2 µM | TGI [54]: 24.6 µM | TGI [55]: 26.4 µM | TGI [56]: 17.9 µM | TGI [57]: 21.1 µM

CC1(C)OC(=O)C(c2cccs2)C(=O)O1
TGI [1]: > 100 µM | TGI [2]: > 100 µM | TGI [4]: > 100 µM | TGI [5]: > 100 µM | TGI [6]: > 100 µM | TGI [7]: > 100 µM | TGI [8]: > 100 µM | TGI [9]: > 100 µM | TGI [10]: > 100 µM | TGI [58]: > 100 µM | TGI [11]: > 100 µM | TGI [12]: > 100 µM | TGI [13]: > 100 µM | TGI [14]: > 100 µM | TGI [15]: > 100 µM | TGI [16]: > 100 µM | TGI [17]: > 100 µM | TGI [18]: > 100 µM | TGI [19]: > 100 µM | TGI [20]: > 100 µM | TGI [21]: > 100 µM | TGI [22]: > 100 µM | TGI [24]: > 100 µM | TGI [25]: > 100 µM | TGI [26]: > 100 µM | TGI [27]: > 100 µM | TGI [28]: > 100 µM | TGI [29]: > 100 µM | TGI [30]: > 100 µM | TGI [31]: > 100 µM | TGI [32]: > 100 µM | TGI [33]: > 100 µM | TGI [34]: > 100 µM | TGI [35]: > 100 µM | TGI [36]: > 100 µM | TGI [37]: > 100 µM | TGI [39]: > 100 µM | TGI [40]: > 100 µM | TGI [41]: > 100 µM | TGI [42]: > 100 µM | TGI [43]: > 100 µM | TGI [44]: > 100 µM | TGI [45]: > 100 µM | TGI [46]: > 100 µM | TGI [47]: > 100 µM | TGI [48]: > 100 µM | TGI [49]: > 100 µM | TGI [50]: > 100 µM | TGI [51]: > 100 µM | TGI [52]: > 100 µM | TGI [54]: > 100 µM | TGI [55]: > 100 µM | TGI [56]: > 100 µM | TGI [57]: > 100 µM

CCCc1nc(N)nc(C(=O)Nc2cccc(C(F)(F)F)c2)c1CC
TGI [1]: > 100 µM | TGI [2]: > 100 µM | TGI [3]: > 100 µM | TGI [4]: > 100 µM | TGI [5]: > 100 µM | TGI [7]: > 100 µM | TGI [8]: > 100 µM | TGI [9]: > 100 µM | TGI [10]: > 100 µM | TGI [58]: > 100 µM | TGI [11]: > 100 µM | TGI [12]: > 100 µM | TGI [13]: > 100 µM | TGI [14]: > 100 µM | TGI [15]: > 100 µM | TGI [16]: > 100 µM | TGI [17]: > 100 µM | TGI [18]: > 100 µM | TGI [19]: > 100 µM | TGI [20]: > 100 µM | TGI [21]: > 100 µM | TGI [22]: > 100 µM | TGI [23]: > 100 µM | TGI [24]: > 100 µM | TGI [25]: > 100 µM | TGI [27]: > 100 µM | TGI [28]: > 100 µM | TGI [29]: > 100 µM | TGI [30]: > 100 µM | TGI [31]: > 100 µM | TGI [32]: > 100 µM | TGI [33]: > 100 µM | TGI [34]: > 100 µM | TGI [35]: > 100 µM | TGI [36]: > 100 µM | TGI [37]: > 100 µM | TGI [38]: > 100 µM | TGI [39]: > 100 µM | TGI [40]: > 100 µM | TGI [41]: > 100 µM | TGI [42]: > 100 µM | TGI [43]: > 100 µM | TGI [44]: > 100 µM | TGI [45]: > 100 µM | TGI [46]: > 100 µM | TGI [50]: > 100 µM | TGI [51]: > 100 µM | TGI [52]: > 100 µM | TGI [53]: > 100 µM | TGI [54]: > 100 µM | TGI [55]: > 100 µM | TGI [56]: > 100 µM

— PubChem BioAssay (NCI)
